Source: patent US11517575B2, “Use of minaprine to reduce tumor growth” (Institut Gustave-Roussy, priority 2019, dated 2022)

How the values were obtained:
CT26 tumor cells = experiment: Tumor growth in immunocompetent mice after intratumoral or intraperitoneal injection; assay type: in vivo, mouse; details: Balb/c mice
Experimental: FIG. 7. Minaprine reduces tumor growth in immunocompetent mice after intratumoral or intraperitoneal injections. (A-C) 3 10^6 CT26 cells were implanted in immunocompetent BALB/c mice. Palpable tumors were injected with 10 μM Minaprine (or control) after 6 days. The tumor growth volume was then determined three times a week for the following 38 days (A and B). The percentage of mice survival was also determined (C). (D-I) 5 10^5 CT26 cells were implanted in immunocompetent BALB/c mice. After 12 days, tumor bearing mice were intraperitoneally injected with control (D and I), 0.3 mg/kg (E and I), 1 mg/kg (F and I), 3 mg/kg (G and I) or 10 mg/kg (H and I) of Minaprine. Tumor growth volumes (A-J) and fold change in the tumor volumes after intraperitoneal injection (D-I) were analyzed. Tumor growth volumes were the determined three times a week for the following 38 days.
For intratumoral injection, 3 10^6 Balb/c-derived CT26 tumor cells were subcutaneously implanted in 8 week-old Balb/c mice (Janvier Laboratories). After 6 days, 10 μM of Minaprine or control phosphate buffer saline (PBS) was injected into tumors (20 μl) and tumor volume was evaluated 3 times a week. For intraperitoneal injection, 5 10^5 Balb/c-derived CT26 tumor cells were subcutaneously implanted in 8 week-old Balb/c mice (Janvier Laboratories). After 12 days, tumor-bearing mice were intraperitonealy injected with different concentrations of Minaprine (0.3, 1, 3 and 10 mg/kg) or PBS. Tumor volume was also evaluated 3 times a week. The experiments were randomized, performed in compliance with the EU Directive 63/2010 and approved by Ethical Committee at Gustave Roussy Cancer Campus (CEEA IRCIV/IGR n^o26).
No statistical methods or criteria were used to estimate sample size or to include/exclude samples. The investigators were not blinded to group allocation during experiments and outcome assessment. Results are expressed as mean value SEM. To determine statistical significance, Two-way ANOVA (FIG. 7A) and Log rank (Mantel-Cox) (FIG. 7I) tests were used for calculation of P values. Prism 6 Software was used for the generation of survival graphs and statistical significance. Statistical significance was given as **p value<0.01 or *p value<0.05.
We first subcutaneously implanted 3 10^6 Balb/c-derived CT26 colon cancer cells in immunocompetent Balb/c mice. After 6 days, tumor-bearing mouse were randomized and 10 μM of Minaprine (3 mg/kg) was injected into tumors. Tumor growth was analyzed during 38 days.
We next determined whether intraperitoneal injections of Minaprine could also impact tumor growth. Thus, 5 10^5 Balb/c-derived CT26 cells were implanted into immunocompetent Balb/c mice. After 12 days, tumor-bearing mice were randomized, intraperitoneally injected with control (FIGS. 7D and 7I) or with Minaprine at different concentrations (FIGS. 7E-7I).

CT26 cells = experiment: Anti-tumor vaccination assay, CT26 cells in BALB/c mice; assay type: in vivo, mouse; details: for frequency of mice showing a protective response: 8 Gy + 10 μM compound 24 h
Experimental: FIG. 5. Identification of cannibalism modulators as immunogenic cell death inducers. MCA205 (A) or CT26 (E, I, M, Q) cells were treated with the indicated drugs. After 24 h of coculture with the indicated treatment, cell death was monitored by staining DiOC6(3) and PI, and the percentage of dying (DiOC6(3)^low PI^−, open bars) and dead (DiOC6(3)^low PI^+, closed bars) cells was determined by cytofluorometry. (B-D) MCA205 cells or (F-H, J-L, N-P, R-T) CT26 cells cocultured after x irradiation with the indicated compounds were inoculated subcutaneously into the right flank of […] or BALB/c mice, respectively. Seven days later, the mice were rechallenged with live cells injected into the opposite flank, and tumor growth was monitored (five mice per group).
FIG. 6. Tumor vaccination experiments. CT26 cells were treated for 24 hours with 10 μM VP331 (A, F, K), 10 μM Minaprine (B, G, L), 10 μM Lopa87 (C, H, M), 10 μM SG6163F (D, I, N), 10 μM Azaguanine-8 (8-aza) (E, J, O) alone or combined with 8 Gy ionizing radiation and inoculated (s.c.) into immunocompetent BALB/c mice, which were rechallenged at the opposite flank 7 days later with the same cancer cells. The percentage of tumor-free mice was evaluated three times a week for the following 38 days. Percentage of total tumor free mice (A-E), tumor free-mice at the first injection site (F to J, P) or at the second injection site (K to O, Q) are shown. (*P<0.05, **P<0.01, ***P<0.001, two-way ANOVA).
The combination of IRCCE with IR induces efficient antitumor immunity. Considering that immunogenic cell death (ICD) inducers were identified (such as Digoxin, Digitoxin, Lanatoside C or Doxorubicin hydrochloride)^3, 4, 48-51) as IRCCE, the ability of these compounds to induce an antitumor immunity after radiotherapy was evaluated. First, a preclinical approaches was developed to study the immunological effects of IRCCE on two mouse models of carcinoma (colon CT26 carcinoma and fibrosarcoma MCA205). Initially, the ability of the combination of IRCCE+IR to trigger a specific anti-tumor immune response was appreciated using immunocompetent mice through anti-tumor vaccination assays. According to previously published studies^52, the injection of cancer cells succumbing to an immunogenic cell death (ICD) into immunocompetent mice must elicit a protective immune response that is specific for tumor antigens. Thus, 3×10^5 MCA205 cells were first treated with 10 μM of SG6163F for 24 hours. Then, treated cells were inoculated subcutaneously in 200 μl PBS into the lower flank of 8-week-old female C57BL/6 mice. One week later, 3×10^4 untreated control cells were inoculated into the contralateral flank of mice. Tumors were evaluated weekly using a common caliper. Animals bearing tumors that exceeded 20-25% body mass were euthanatized. […] Then, 3×10^6 CT26 cells were irradiated with 8 Gy in presence of 10 μM of SG6163F (FIGS. 5E and 5F), VP331 (FIGS. 5I and 5J), Minaprine dihydrochloride (FIGS. 5M and 5N) or LOPA87 (FIGS. 5Q and 5R) for 24 hours. Then, cells were inoculated as previously described subcutaneously in […] into the lower flank of 8-week-old female BALB/c mice. One week later, 5×10^5 untreated control cells were inoculated into the contralateral flank of mice and tumors were evaluated weekly using a common caliper. As previously mentioned, animals bearing tumors that exceeded 20-25% body mass were euthanatized. The percentage of dying cells in each condition was evaluated by determining with DiOC(6)3/IP staining (FIGS. 5E, 5I, 5M and 5Q). Finally, the ability of these compounds to repress the growth of cancer cells that have been injected 7 days after injection of irradiated and treated cancer cells was appreciated.
A second anti-tumor vaccination assay was done on CT26 mouse models of carcinoma as previously described. […]

With `Cc1cc(-c2ccccc2)nnc1NCCN1CCOCC1.Cl.Cl` [Minaprine dihydrochloride] as the compound, how does the tumor growth (CT26 tumor cells; intraperitoneal injection 1 mg/kg 12 days after implant of 5 10^5 CT26 cells) read?
Its tumor growth is “significantly decreased the growth of treated tumors”.

What about the tumor growth (CT26 tumor cells; intraperitoneal injection 3 mg/kg 12 days after implant of 5 10^5 CT26 cells) of the same compound?
Its tumor growth is “significantly decreased the growth of treated tumors”.

And the tumor growth (CT26 tumor cells; intraperitoneal injection 10 mg/kg 12 days after implant of 5 10^5 CT26 cells)?
The tumor growth was “significantly decreased the growth of treated tumors”.

And the tumor growth (CT26 tumor cells; intratumoral injection 3 mg/kg (10 μM) 6 days after implant of 3 10^6 CT26 cells, followed 38 days)?
The tumor growth was “significantly decreases the growth of tumors”.

What about the “survival of treated mice” value (CT26 tumor cells; intratumoral injection 3 mg/kg, CT26 tumors, versus untreated control) of the same compound?
The value was “increase survival”.

What about the “frequency of mice showing a protective response” value (CT26 cells; first assay: CT26 cells, rechallenge one week later) of the same compound?
Its value is “significant increase in the frequency of mice showing a protective response”.

And the “protective response after injection of cancer cells” value (CT26 cells; second assay: CT26 cells treated with 10 μM compound alone (no IR))?
Its value is “induce an increase of protective response”.

What about the “frequency of mice showing a protective response” value (CT26 cells; second assay: CT26 cells, rechallenge 7 days later) of the same compound?
Its value is “Significant increases in the frequency of mice showing a protective response”.
